Earlier results in patent US20250352520A1, “USE OF DEXPRAMIPEXOLE FOR THE TREATMENT OF EOSINOPHILIC COPD” (Areteia Therapeutics, Inc., priority 2024, published 2025).
Like-named read-outs stand apart in the source and are kept apart here.

Experiments:
[1] = patients with COPD, cited from earlier work
[2] = severe, uncontrolled, eosinophilic asthma; cited from earlier work
[3] = cited from earlier work
[4] = COPD; cited from earlier work

Molecule | blood eosinophils ([1]; all doses, throughout the trial) | exacerbations [1] | eosinophils [2] | exacerbations [2] | lung function [2] | asthma exacerbations [3] | biomarkers of asthma control [3] | blood eosinophil counts [4] | lung function and clinical outcomes [4]
benralizumab: an anti-interleukin-5 receptor monoclonal antibody | substantial depletion of blood eosinophils | failed to show statistically significant reduction of exacerbations | effectively depleted eosinophils | decreased exacerbations | improved lung function |  |  |  | 
mepolizumab: a humanized monoclonal antibody against interleukin-5 (antibody, chains of the INN, looked up, V domains shown) VH: QVTLRESGPALVKPTQTLTLTCTVSGFSLTSYSVHWVRQPPGKGLEWLGVIWASGGTDYNSALMSRLSISKDTSRNQVVLTMTNMDPVDTATYYCARDPPSSLLRLDYWGRGTPVTVSS VL: DIVMTQSPDSLAVSLGERATINCKSSQSLLNSGNQKNYLAWYQQKPGQPPKLLIYGASTRESGVPDRFSGSGSGTDFTLTISSLQAEDVAVYYCQNVHSFPFTFGGGTKLEIK |  |  |  |  |  | significantly reduced asthma exacerbations | associated with improvements in biomarkers of asthma control, including eosinophil counts | effectively reduced blood eosinophil counts | not associated with consistent improvements in lung function and clinical outcomes
